The values that follow come from patent publication US20100261606A1, “Homogeneous and Storage-Stable Mixtures of Different Active Plant Protection Agent Granule Particles” (priority 2007, published 2010).

The format of the data set is physicochemical. The source says: This therefore allows the use according to the invention of these mixture packs for plant protectant active substances which had previously shown to be “incompatible” in mixture with other active substances on or in a granule particle. Determining the “incompatibility” of individual active substances in an active substance mixture is effected by simply measuring the remaining residual amounts of active substance after a predetermined storage period. The reasons for this active substance “incompatibility” with other active substances may be based on a very wide range of factors. However, it poses a serious problem for formulation research, when active substance mixtures required by the market cannot be realized due to this problem. [table]

Where [1] appears, read: in Granule coformulation (2), prior art, n = 1.
Setting [2] is: in Granule mixture (1), according to the invention, n = 3.

Molecules are shown by their SMILES. “And” between values parts separate entries of the source, which are not always exact repeats. Equal values may be shown once. Read-outs that look alike come from different tables or passages of the source.

Turning to `O=C(Nc1ccc(F)cc1F)c1cccnc1Oc1cccc(C(F)(F)F)c1` [Diflufenican, diflufenican], under setting [1], the “Absolute content after 2 months' storage at 40° C.” value (shortened to “Absolute content … at 40° C.”) is recorded as 3.79 % by weight, the “Absolute content at the beginning of the storage” value (“Absolute content at the beginning” for short) was determined as 3.79 % by weight and the “Percentage change after 2 months' storage at 40° C.” value (“Percentage change” below) was determined as 0.0%. Also, under setting [2], the “Absolute content … at 40° C.” value was 12.8 % by weight and 12.1 % by weight; the “Absolute content at the beginning” value is 12.5 % by weight and 12.3 % by weight and 12.1 % by weight.
`CC(C)N(C(=O)COc1nnc(C(F)(F)F)s1)c1ccc(F)cc1` [Flufenacet, flufenacet]: under setting [1], the “Absolute content … at 40° C.” value came to 12.10 % by weight, the “Absolute content at the beginning” value amounted to 12.40 % by weight and the “Percentage change” value is recorded as −2.4%. In addition, under setting [2], the “Absolute content … at 40° C.” value is 39.2 % by weight and 38.3 % by weight and 39.9 % by weight; the “Absolute content at the beginning” value is 39.8 % by weight and 40.0 % by weight and 40.6 % by weight; the “Percentage change” value was −1.5% and −4.3% and −1.7%.
In the case of `COc1nc(C)nc(NC(=O)NS(=O)(=O)c2cc(I)ccc2C(=O)O)n1` [Iodosulfuron, iodosulfuron], the “Degradation during storage (in words)” value was “severe degradation”. Also, under setting [1], the “Absolute content … at 40° C.” value was found to be 0.039 % by weight, the “Absolute content at the beginning” value is 0.135 % by weight and the “Percentage change” value was −71.0%. For the same compound, under setting [2], the “Absolute content … at 40° C.” value was 0.367 % by weight and 0.360 % by weight and 0.382 % by weight; the “Absolute content at the beginning” value was 0.330 % by weight and 0.312 % by weight and 0.378 % by weight. Further, the “Change in content during storage (in words)” value (in granule mixture (according to the invention)) was “no appreciable change”.
